Measured values as given in patent US5578324A, “Peptide proteinaceous drug nasal powder composition” (Teijin Limited, priority 1993, dated 1996).
Counter-ions that a name gives are not always drawn. Where a SMILES comes first, the peptide text is derived from it. [ ]: non-standard residue; d: D form. The star is where a group is joined. Sta = CC(C)C[C@H](N)[C@@H](O)CC(=O)O; Isovaleryl = CC(C)CC(=O)*

Key:
Format in all cases: biochemical
[1] = system: Human Nasal Mucosal Homogenate; experiment: Inhibitory effect on degradation of peptide proteinaceous drug in human nasal mucosal homogenate; design: concentration or dose not given beside the values; conditions: 37° C., HPLC; for Inhibitor (%) ACTH: degradation of adrenocorticotropic hormone (ACTH); for Inhibitor (%) CGRP: degradation of calcitonin gene related peptide (CGRP); for Inhibitor (%) GLU: degradation of glucagon (GLU); for Inhibitor (%) GHRH: degradation of growth hormone releasing hormone (GHRH); for Inhibitor (%) INS: degradation of insulin (INS); for Inhibitor (%) LHRH: degradation of luteinizing hormone releasing hormone (LHRH); for Inhibitor (%) PTH: degradation of parathyroid hormone (PTH); for Inhibitor (%) PDGF: degradation of platelet-derived growth factor (PDGF); for Inhibitor (%) SCT: degradation of salmon calcitonin (SCT); for Inhibitor (%) S.p: degradation of substance P (S.p); for Inhibitor (%) GIF: degradation of somatostatin (GIF)
Description: A homogenate solution was prepared from human nasal mucosa to give 1 mg/ml of protein. […] The amounts of the peptide proteinaceous drug not yet cleaved after a predetermined time were measured by HPLC to find the amounts of decomposition. The inhibition rates were calculated by the following formula.
Inhibition rate (%)=(A-B)/A×100
A: Amount of peptide proteinaceous drug cleaved when enzyme inhibitor or absorption accelerant of present invention is not added to homogenate
B: Amount of peptide proteinaceous drug cleaved when enzyme inhibitor or absorption accelerant of present invention is added to homogenate

[2] = system: Human Nasal Mucosal Homogenate; experiment: Activity of protease in human nasal mucosal homogenate (cleavage of synthesized substrates); conditions: substrate 0.1 mM, 37° C., amount of substrate cleaved by HPLC
Description: A homogenate solution was prepared from human nasal mucosa to give 1 mg/ml of protein. Next, synthesis substrates corresponding to the various proteases shown in Table 1 were added to 0.5 ml portions of the homogenate solution to give 0.1 mM concentrations. The results were incubated at 37° C. The amounts of the substrates remaining after a predetermined time were measured by HPLC to find the amounts of substrates cleaved and find the activity of the various proteases.

trypsin = molecular target: T1, trypsin (Bos taurus, UniProt P00760); experiment: Trypsin inhibiting activity
T1 construct: gene PRSS1
T1 sequence (P00760 24-246): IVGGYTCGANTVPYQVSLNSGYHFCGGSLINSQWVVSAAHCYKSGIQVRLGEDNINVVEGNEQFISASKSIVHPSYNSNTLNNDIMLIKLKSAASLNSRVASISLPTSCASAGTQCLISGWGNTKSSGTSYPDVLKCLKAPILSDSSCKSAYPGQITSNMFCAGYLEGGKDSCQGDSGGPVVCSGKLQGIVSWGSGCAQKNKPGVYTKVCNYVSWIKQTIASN

Row | Compound | Inhibitor (%) ACTH [1] | Inhibitor (%) CGRP [1] | Inhibitor (%) GLU [1] | Inhibitor (%) GHRH [1] | Inhibitor (%) INS [1] | Inhibitor (%) LHRH [1] | Inhibitor (%) PTH [1] | Inhibitor (%) PDGF [1] | Inhibitor (%) SCT [1] | Inhibitor (%) S.p [1] | Inhibitor (%) GIF [1] | Activity (nM/h/mg protein) [2] | trypsin inhibiting activity (trypsin)
1 | O=C(O)CNC(=O)C(CS)Cc1ccccc1 (stereo not shown) [Thiorphan] | 0% | 0% | 0% | 0% | 0% | 0% | 0% | 0% | 0% | 0% | – | – | –
2 | Cc1ccc(S(=O)(=O)N[C@@H](Cc2ccccc2)C(=O)CCl)cc1 [TPCK] | 8% | 0% | 5% | 0% | 7% | 5% | 10% | 3% | 0% | 10% | 11% | – | –
3 | Bz--Arg--MCA | – | – | – | – | – | – | – | – | – | – | – | 1 nM/h/mg protein | –
4 | NCc1ccc(C(=O)O)cc1 [p-Aminomethyl benzoic acid] | 84% | 72% | 60% | 70% | 74% | 54% | 80% | 65% | 76% | 58% | 85% | – | –
5 | CC(C)C[C@H](NC(=O)[C@@H](NC(=O)N[C@@H](Cc1ccccc1)C(=O)O)[C@@H]1CCN=C(N)N1)C(=O)N[C@H](C=O)Cc1ccccc1 [Chymostatin] | 12% | 23% | 35% | 25% | 22% | 16% | 15% | 10% | 38% | 15% | 25% | – | –
6 | NCc1ccc(S(N)(=O)=O)cc1 [Mafenide acetate, 4-(aminomethyl) benzenesulfamine] | 78% | 70% | 56% | 66% | 52% | 32% | 75% | 59% | 67% | 55% | 74% | – | no trypsin inhibiting activity
7 | NC[C@H]1CC[C@H](C(=O)O)CC1 [Tranexamic acid, trans-4-(aminomethyl) cyclohexane carboxylic acid] | 80% | 75% | 68% | 75% | 79% | 58% | 78% | 68% | 73% | 65% | 80% | – | no trypsin inhibiting activity
8 | NCCc1ccc(O)c(O)c1 [Dopamine hydrochloride, 4-(2-aminoethyl)-1,2 benzenediol] | 77% | 72% | 50% | 50% | 52% | 29% | 70% | 55% | 64% | 60% | 72% | – | no trypsin inhibiting activity
9 | NC[C@H]1CC[C@H](C(=O)Oc2ccc(CCC(=O)O)cc2)CC1 [Cetraxate hydrochloride, trans-(4-aminomethyl) cyclohexane carboxylic acid p-(2-carboxyethyl)phenyl ester] | 70% | 70% | 54% | 70% | 80% | 48% | 75% | 58% | – | 54% | 80% | – | no trypsin inhibiting activity
10 | NC[C@H]1CC[C@H](C(=O)c2ccc(CCC(=O)O)cc2)CC1 [Rotraxate hydrochloride, 3-((p-(trans-4-aminomethylcyclohexylcarbonyl)phenyl)) propionic acid] | 74% | 75% | 62% | 75% | 84% | 56% | 76% | 59% | 80% | 53% | 86% | – | no trypsin inhibiting activity
11 | CC(C)CC(=O)N[C@H](C(=O)N[C@H](C(=O)N[C@@H](CC(C)C)[C@@H](O)CC(=O)N[C@@H](C)C(=O)N[C@@H](CC(C)C)[C@@H](O)CC(=O)O)C(C)C)C(C)C [Pepstatin] (Isovaleryl-VV[Sta]A[Sta]-OH) | 4% | 10% | 8% | 0% | 15% | 0% | 10% | 0% | 10% | 0% | 0% | – | –
12 | NCc1ccccc1 [Benzylamine] | 80% | 76% | 48% | 68% | 68% | 49% | 80% | 52% | 70% | 54% | 78% | – | –
13 | CCOC(=O)c1ccc(OC(=O)CCCCCNC(=N)N)cc1 [Gabexate] | 48% | 49% | 56% | 40% | 46% | 27% | 44% | 43% | 53% | 40% | 56% | – | –
